Laboratory results published in patent publication US20180311342A1, “IMMUNOSTIMULATING AGENT” (AJINOMOTO CO., INC., priority 2017, published 2018).

Tests used:
Type in all cases: in vivo, BALB/c mice
[1] = test system: anti-OVA-specific IgG1 subclass antibody; assay: Adjuvant activity test: anti-OVA-specific IgG1 subclass antibody in serum of OVA-immunized mice (ELISA); conditions: after secondary immunization, serum 2 weeks later; OVA 5 μg + compound 0.256 μmol in 5% αCD-added saline (Addavax mixed with saline at 1:1), dorsal-subcutaneous; compared to OVA single administration group
[2] = test system: anti-OVA-specific IgE antibody; assay: Allergy inducing activity test: anti-OVA-specific IgE antibody in serum of OVA-immunized mice (DS mouse IgE ELISA (OVA) kit); conditions: for anti-OVA-specific IgE antibody production: after secondary immunization, dorsal-subcutaneous; for allergy inducing activity as compared to Addavax: conclusion from IgE after secondary immunization, compound in 5% αCD-added saline
Experimental: 8-Week-old female BALB/c mice were divided into groups (N=6), and each group was primarily immunized by dorsal-subcutaneous administration of (1) ovalbumin (OVA) (5 μg) dissolved in saline as an antigen (OVA single administration group), (2) OVA 5 μg and Addavax™ (mixed with saline at 1:1) dissolved in saline (Addavax™ administration group) as positive control adjuvant, (3) OVA 5 μg and SZ137 0.256 μmol dissolved or dispersed in 5% α-cyclodextrin (hereinafter to be simply referred to as αCD)-added saline (SZ137 administration group), (4) OVA (5 μg) and SZ138 (0.256 μmol) dissolved or dispersed in 5% αCD-added saline (SZ138 administration group), (5) OVA (5 μg) and SZ142 (0.256 μmol) dissolved or dispersed in 5% αCD-added saline (SZ142 administration group), (6) OVA (5 μg) and SZ144 (0.256 μmol) dissolved or dispersed in 5% αCD-added saline (SZ144 administration group), (7) OVA (5 μg) and SZ145 (0.256 μmol) dissolved or dispersed in 5% αCD-added saline (SZ145 administration group), (8) OVA (5 μg) and SZ146 (0.256 μmol) dissolved or dispersed in 5% αCD-added saline (SZ146 administration group), (9) OVA (5 μg) and SZ147 (0.256 μmol) dissolved or dispersed in 5% αCD-added saline (SZ147 administration group), (10) OVA (5 μg) and SZ148 (0.256 μmol) dissolved or dispersed in 5% αCD-added saline (SZ148 administration group), each per mouse. Two week later, the secondary immunization was carried out by dorsal-subcutaneous administration of solutions or dispersions similar to those of the above-mentioned (1)-(10) again. Two weeks from the secondary immunization, the whole blood was extracted under anesthesia, and the obtained serum sample was measured for anti-OVA-specific IgG1 subclass antibody, anti-OVA-specific IgG2a subclass antibody, and anti-OVA-specific IgE antibody.
The measurement method of the anti-OVA-specific IgE antibody in Experimental Example 1 and the following Experimental Examples 2-5, 8-10 is as follows.
DS mouse IgE ELISA (OVA) kit manufactured by DS Pharma Biomedical Co., Ltd. was used. The protocol is briefly shown below.
The serum sample and a standard reagent for drawing an analytical curve are diluted with a buffer and, after stirring, left standing at room temperature for 10 min. The sample and the standard solution are added to a plate bound with an IgE capture antibody in advance and, after stirring, the mixture is left standing at room temperature for 60 min. The mixture is washed three times with wash, HRP-labeled OVA is added, and the mixture is left standing at room temperature for 30 min. The mixture is washed three times with wash, a substrate solution is added, and the mixture is left standing in dark at room temperature for 30 min. A reaction quenching liquid is added, the mixture is stirred, and the absorbance (OD Value=450 nm) is immediately measured.
The standard used is one attached to the kit, the standard curve is drawn from the measured OD Value, and the concentration is calculated. […]

[3] = test system: anti-OVA-specific IgG1 subclass antibody; assay: Adjuvant activity test: anti-OVA-specific IgG1 subclass antibody in serum of OVA-immunized mice (ELISA); conditions: dorsal-subcutaneous, compared to OVA single administration group
[4] = test system: anti-OVA-specific IgG2a subclass antibody; assay: Adjuvant activity test: anti-OVA-specific IgG2a subclass antibody in serum of OVA-immunized mice (ELISA); conditions: dorsal-subcutaneous, compared to OVA single administration group
[5] = OVA 5 μg + compound 0.256 μmol in 5% αCD-added saline (Addavax mixed with saline at 1:1), compared to OVA single administration group
[6] = OVA 5 μg + compound 0.256 μmol in 5% αCD-added saline, compared to Addavax administration group
[7] = Experimental Example 4: after secondary immunization, OVA 5 μg + compound 0.256 μmol dissolved in saline (no αCD)
[8] = after primary immunization, serum 2 weeks later, OVA 5 μg + compound 0.256 μmol in 5% αCD-added saline (Addavax mixed with saline at 1:1)

| Compound | anti-OVA-specific IgG1 subclass antibody production [1] | anti-OVA-specific IgE antibody production [2, 5] | allergy inducing activity as compared to Addavax [2] | anti-OVA-specific IgE antibody production [2, 6] | anti-OVA-specific IgG1 subclass antibody production [3, 7] | anti-OVA-specific IgG2a subclass antibody production [4, 7] | anti-OVA-specific IgG1 subclass antibody production [3, 8] | anti-OVA-specific IgG2a subclass antibody production [4, 8] |
| --- | --- | --- | --- | --- | --- | --- | --- | --- |
| CCCCCCCCCCCCCCCC(=O)N[C@@H](CCCCN)C(=O)NCCCCCCCCCCCC.Cl [SZ153, N-[(1S)-5-amino-1-(dodecylcarbamoyl)pentyl]hexadecanamide hydrochloride] | significantly increased | an increase in the anti-OVA-specific IgE antibody production was not observed | may have a lower allergy inducing activity |  |  |  |  |  |
| CCCCCCCCCCCCCCCCCCCCCC(=O)N[C@@H](CCCCNC(C)=O)C(=O)NCCCCCCCCCCCC [SZ167, N-[(1S)-5-acetamide-1-(dodecylcarbamoyl)pentyl]docosanamide] | tended to increase |  | allergy inducing activity equivalent to or not more than that of Addavax™ | lower |  |  |  |  |
| CCCCCCCCCCCCCCCCCCCCCC(=O)NCC(C)(C)C(=O)NCCCCCCCCCCCC [SZ148, N-[3-(dodecylamino)-2,2-dimethyl-3-oxo-propyl]docosanamide] | showed a tendency to increase | an increase in the anti-OVA-specific IgE antibody production was not observed | may have a lower allergy inducing activity |  |  |  |  |  |
| CCCCCCCCCCCCCCCCNC(=O)N[C@@H](CCCNC(=N)N)C(=O)NCCCCCC.Cl [SZ168, (2S)-5-guanidino-2-(hexadecylcarbamoylamino)-N-hexyl-pentanamide hydrochloride] | tended to increase |  | allergy inducing activity equivalent to or not more than that of Addavax™ | lower |  |  |  |  |
| CCCCCCCCCCCCCCCC(=O)N[C@@H](CCCNC(=N)N)C(=O)NCCCCCCCCCCCC.Cl [SZ111, N-[(1S)-1-(dodecylcarbamoyl)-4-guanidino-butyl]hexadecanamide hydrochloride] | significantly increased | did not increase significantly | may have a lower allergy inducing activity | lower | significantly increased | significantly increased |  |  |
| CCCCCCCCCCCCCCCCCCCCCC(=O)N[C@@H](CC(C)C)C(=O)NCCCCCCCCCCC [SZ142, N-[(1S)-3-methyl-1-(undecylcarbamoyl)butyl]docosanamide] | showed a tendency to increase | an increase in the anti-OVA-specific IgE antibody production was not observed | may have a lower allergy inducing activity |  |  |  |  |  |
| CCCCCCCC/C=C/CCCCCCCC(=O)N[C@@H](CCCNC(=N)N)C(=O)NCCCCCCCCCCCC.Cl [SZ161, (E)-N-[(1S)-1-(dodecylcarbamoyl)-4-guanidino-butyl]octadeca-9-enamide hydrochloride] | significantly increased |  | allergy inducing activity equivalent to or not more than that of Addavax™ | lower |  |  |  |  |
| CCCCCCCCCCCCCCCCCCCCCC(=O)N[C@@H](CCCCNC(=N)N)C(=O)NCCCCCCCCCCCC.Cl [SZ166, N-[(1S)-1-(dodecylcarbamoyl)-5-guanidino-pentyl]docosanamide hydrochloride] | tended to increase |  | allergy inducing activity equivalent to or not more than that of Addavax™ | lower |  |  |  |  |
| CCCCCCCCCCCCCCCC(=O)N[C@@H](CC(C)C)C(=O)NCCCCCCCCCCCC [SZ144, N-[(1S)-1-(dodecylcarbamoyl)-3-methyl-butyl]hexadecanamide] | showed a tendency to increase | an increase in the anti-OVA-specific IgE antibody production was not observed | may have a lower allergy inducing activity |  |  |  |  |  |
| CCCCCCCCCCCCCCCCCCCCCC(=O)N[C@@H](CCCNC(=N)N)C(=O)NCCCCCCCCCCCC.Cl [SZ138, N-[(1S)-1-(dodecylcarbamoyl)-4-guanidino-butyl]docosanamide hydrochloride] | showed a tendency to increase | an increase in the anti-OVA-specific IgE antibody production was not observed | may have a lower allergy inducing activity |  |  |  |  |  |
| CCCCCCCCCCCCCCCCCCCCCC(=O)N[C@@H](CCCNC(=N)N)C(=O)NCCCCCCC.Cl [SZ163, N-[(1S)-4-guanidino-1-(heptylcarbamoyl)butyl]docosanamide hydrochloride] | tended to increase |  | allergy inducing activity equivalent to or not more than that of Addavax™ | lower |  |  |  |  |
| CCCCCCCCCCCCCCCCCCNC(=O)N[C@@H](CCCNC(=N)N)C(=O)NCCCCCCCCCCCC.Cl [SZ211, (2S)—N-dodecyl-5-guanidino-2-(octadecylcarbamoylamino)pentanamide hydrochloride] | significant enhancement |  |  |  |  |  | significant enhancement | significant enhancement |
| CCCCCCCCCCCCCCCCCC(=O)N[C@@H](CC(C)C)C(=O)NCCCCCCCC [SZ196, N-[(1S)-3-methyl-1-(octylcarbamoyl)butyl]octadecanamide] | significant enhancement |  |  |  |  |  | tended to increase | tended to increase |
| CCCCCCCCCCCCCCCCCCCCCC(=O)N[C@@H](CCCN)C(=O)NCCCCCCCCCCCC.Cl [SZ165, N-[(1S)-4-amino-1-(dodecylcarbamoyl)butyl]docosanamide hydrochloride] | tended to increase |  | allergy inducing activity equivalent to or not more than that of Addavax™ | lower |  |  |  |  |
| CCCCCCCCCCCCNC(=O)[C@H](CCCNC(=N)N)NC(=O)OCCCCCCCCCCCC.Cl [SZ187, dodecyl N-[(1S)-1-(dodecylcarbamoyl)-4-guanidino-butyl]carbamate hydrochloride] | showed a tendency to increase |  |  |  |  |  | significant enhancement | significant enhancement |
| CCCCCCCCCCCCCCCCCCCCCC(=O)N[C@@H](CC(C)C)C(=O)NCCCCCCCC [SZ198, N-[(1S)-3-methyl-1-(octylcarbamoyl)butyl]docosanamide] | tended to increase |  |  |  |  |  | tended to increase | tended to increase |
